Key:
Type in all cases: cell-based
St. Aereus = experiment: Antimicrobial testing by agar dilution, St. Aereus; settings: Staphylococcus aureus; after 10, 20, 40 and 60 min at all dilutions 1:100, 1:200, 1:400, 1:800; summary in words
Description: (§1) The antimicrobial properties of the 5-(4-methoxyphenyl)-1-hexyl-2-(4-nitrophenyl)-4-phenyl-1H-imidazole was studied by the method of agar dilution. Test solutions of each compound was prepared in concentration of 1% using dimethylformamide as a solvent then they are diluted in physiological solution to obtain the final experimental dilutions 1:100, 1:200, 1:400, 1:800. The effect of these substances are compared with furacillin in a controllable study. The testing microbes used were gram positive bacteria St. Aereus, gram negative bacteria E. Coli, Ps. aeruginosa and Candida albicans fungi were taken. The experiments used for this survey were meat-pentonlu agar (EPA) for cultivation of bacteria and Saburo environment for fungi. Each experiment used 1 ml of test solution on each plate 500 min. Add 2 drops of emulsified with microbes feel. All experimental samples were taken from the agar after 10, 20, 40, 60 minutes in the environment on the basis of Patrk planted. Bacteria were cultivated at a temperature of 37° C. for 1 day and the mushroom was kept in a thermostat for […] at a temperature of 28° C. in the. Then results were checked.

E. Coli = experiment: Antimicrobial testing by agar dilution, E. Coli; settings: Escherichia coli; after 10, 20, 40 and 60 min at all dilutions 1:100, 1:200, 1:400, 1:800; summary in words
Description: as §1

Ps. aeruginosa = experiment: Antimicrobial testing by agar dilution, Ps. aeruginosa; settings: Pseudomonas aeruginosa; after 10, 20, 40 and 60 min at all dilutions 1:100, 1:200, 1:400, 1:800; summary in words
Description: as §1

Candida albicans = experiment: Antimicrobial testing by agar dilution, Candida albicans; settings: after 10, 20, 40 and 60 min at all dilutions 1:100, 1:200, 1:400, 1:800, summary in words
Description: as §1

Measured: inhibition activity

CCCCCCn1c(-c2ccc([N+](=O)[O-])cc2)nc(-c2ccccc2)c1-c1ccc(OC)cc1 [5-(4-methoxyphenyl)-1-hexyl-2-(4-nitrophenyl)-4-phenyl-1H-imidazole]
most higher inhibition activity: all assays above
